Measured values: BigSolDB 2.1

O=C([O-])/C=C/C(=O)O.[Na+]
solubility (mole fraction)
Settings | 283.15 K | 293.15 K | 303.15 K | 313.15 K | 323.15 K
in 1,4-dioxane | – | 0.000152 | 0.000165 | 0.000185 | 0.000234
in acetone | – | 2.81e-05 | 3.78e-05 | 4.83e-05 | 6.67e-05
in acetonitrile | 4.79e-05 | 5.26e-05 | 5.58e-05 | 6.32e-05 | 7.05e-05
in ethanol | 5.51e-05 | 6.4e-05 | 7.35e-05 | 8.74e-05 | 9.51e-05
in ethyl acetate | 9.88e-05 | 0.000121 | 0.000167 | 0.000219 | 0.000284
in isobutanol | 9.6e-06 | 1.26e-05 | 1.62e-05 | 2.36e-05 | 3.17e-05
in isopropanol | 2.3e-05 | 3.02e-05 | 4.08e-05 | 5.16e-05 | 6.76e-05
in methanol | 0.000417 | 0.000454 | 0.000495 | 0.000532 | 0.000572
in n-butanol | 2.25e-05 | 4.63e-05 | 5.97e-05 | 7.6e-05 | 9.43e-05
in n-pentanol | 3.44e-05 | 4.21e-05 | 4.93e-05 | 5.45e-05 | 6.5e-05
in n-propanol | 4.82e-05 | 6.3e-05 | 7.13e-05 | 8.71e-05 | 0.000102
in water | 0.00712 | 0.00908 | 0.0114 | 0.0138 | 0.0172
